Data from PubChem BioAssay (NCI).
Where “and” joins values, the source holds several entries; their conditions need not be identical. Equal entries are not always repeated.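 48-hour exposure; five concentrations; linearly interpolated endpoints. GI50 = concentration required for 50% inhibition of growth. TGI: concentration producing complete growth inhibition.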

Tests used:
Assay in all cases: NCI tumour cell line growth inhibition, 48 h
HL-60(TB) leukemia = tested on: HL-60(TB) leukemia
EKVX NSCLC = tested on: EKVX NSCLC
MOLT-4 leukemia = tested on: MOLT-4 leukemia
HS 578T breast = tested on: HS 578T breast
CAKI-1 renal = tested on: CAKI-1 renal
SK-OV-3 ovarian = tested on: SK-OV-3 ovarian
SK-MEL-2 melanoma = tested on: SK-MEL-2 melanoma
DU-145 prostate = tested on: DU-145 prostate
SK-MEL-5 melanoma = tested on: SK-MEL-5 melanoma
NCI-H23 lung = tested on: NCI-H23 lung

Compound | GI50 (HL-60(TB) leukemia) | TGI (HL-60(TB) leukemia) | TGI (EKVX NSCLC) | GI50 (MOLT-4 leukemia) | TGI (MOLT-4 leukemia) | TGI (HS 578T breast) | TGI (CAKI-1 renal) | TGI (SK-OV-3 ovarian) | TGI (SK-MEL-2 melanoma) | TGI (DU-145 prostate) | TGI (SK-MEL-5 melanoma) | GI50 (CAKI-1 renal) | GI50 (SK-OV-3 ovarian) | GI50 (NCI-H23 lung) | TGI (NCI-H23 lung) | GI50 (SK-MEL-2 melanoma) | GI50 (DU-145 prostate) | GI50 (SK-MEL-5 melanoma) | GI50 (EKVX NSCLC) | GI50 (HS 578T breast)
Cc1nc2c(-c3cnc(N)nc3)nc(N3CCOCC3)nc2n1C(C)C | 0.222 µM and 0.23 µM | > 5.87 µM and 20.9 µM | 1.81 µM | 0.297 µM and 0.197 µM | > 59.3 µM | 0.578 µM and 0.199 µM | 1.42 µM and 2.94 µM | 0.57 µM and 0.226 µM | 0.733 µM and 0.688 µM | > 100 µM | 0.9 µM and 0.652 µM |  |  |  |  |  |  |  |  | 
CCN1CCN(C(c2ccc(C(F)(F)F)cc2)c2ccc3cccnc3c2O)CC1 (centres undefined) | 2.09 µM | 5.6 µM |  | 2.12 µM | 6.05 µM |  | 9.36 µM | 16.8 µM | 17.6 µM | 18.7 µM | 7.83 µM | 2.55 µM | 3.84 µM | 2.35 µM | 14.9 µM | 4.53 µM | 5.56 µM | 2.35 µM |  | 
CC(C)=CC/C=C(/C)[C@H]1CC[C@]2(C)[C@@H]1CC[C@@H]1[C@@]3(C)CCCNC(C)(C)[C@@H]3CC[C@]12C | 1.8 µM | 3.73 µM | 28.4 µM | 2.15 µM | 5.93 µM | 22.3 µM | 3.93 µM | 24.8 µM | 22.5 µM | 4.31 µM | 4.3 µM | 1.85 µM | 10.6 µM | 3.17 µM |  | 6.06 µM | 2.08 µM | 1.91 µM | 10.6 µM | 4.96 µM
COc1ccc(CN2C(=O)/C(=C\C(=O)c3ccc(OCCN4CCCCC4)cc3)c3ccccc32)cc1 | 2.35 µM | 6.43 µM | 19.6 µM | 2.26 µM | 6.26 µM | 25.5 µM | 18.1 µM | 34.3 µM | 27.9 µM | 11.5 µM | 23.5 µM | 5.09 µM | 18.4 µM | 6.68 µM | 21.6 µM | 13.8 µM | 3.35 µM | 11 µM | 4.94 µM | 3.79 µM
Cc1ccc(C)c(C2=C(c3cn(C)c4ccccc34)C(=O)NC2=O)c1 | 6.7 µM | 16.2 µM |  | 12.4 µM | > 25 µM | > 25 µM | > 25 µM | > 25 µM | > 25 µM | > 25 µM | > 25 µM | > 23.4 µM | 15.1 µM | > 25 µM | > 25 µM | > 25 µM | > 20.2 µM | > 25 µM |  | > 25 µM
OC[C@H]1C[C@](O)(c2ccc(Cl)cc2)[C@@H](c2ccc(Cl)cc2)O1 | 17.6 µM | 49.2 µM | 48.2 µM | 17.6 µM | 60.1 µM | 45.6 µM | 79.3 µM | > 100 µM |  | 56.9 µM | 29.3 µM | 27 µM | 39.4 µM | 24.8 µM | 58.2 µM |  | 22.1 µM | 15.3 µM | 18.2 µM | 18 µM
COc1cnc2c(c1)C(=O)c1c-2n(CCCNC(C)C)c(=O)c2cc(Cl)ccc12 | 0.3 µM | 1.69 µM |  | 0.0397 µM | 0.452 µM | 4.08 µM | 2.15 µM |  | 34.9 µM | 2.06 µM | 2.38 µM | 0.0652 µM |  |  |  | 13.3 µM | 0.173 µM | 1.14 µM |  | 1.52 µM
CCC(C)n1ncn(-c2ccc(N3CCN(c4ccc(OCC5COC(Cn6cncn6)(c6ccc(Cl)cc6Cl)O5)cc4)CC3)cc2)c1=O (centres undefined) |  |  | > 100 µM | > 100 µM | > 100 µM | > 100 µM | > 100 µM | > 100 µM | 68.9 µM | > 100 µM | > 100 µM | 2.88 µM | 24.2 µM | 27.8 µM | > 100 µM | 13.8 µM | > 100 µM | 2.75 µM | 1.24 µM | 7.42 µM
O=C1NC(=O)C(c2cnc3ccccn23)=C1c1cn2c3c(cc(F)cc13)CN(C(=O)N1CCCCC1)CC2 | 8.74 µM | 44.3 µM |  | 3.41 µM | > 81.4 µM | 60.9 µM | > 37.7 µM | 71.9 µM | 27.2 µM | 39.7 µM | 16.8 µM | 1.24 µM | 15.5 µM | 17.2 µM | 52.3 µM | 8.8 µM | 12.7 µM | 2.81 µM |  | 0.0115 µM
CS(=O)(=O)Nc1ccc2c(c1)oc(=O)c1ccccc12 |  | > 100 µM | > 100 µM |  | > 100 µM | > 100 µM | > 100 µM |  | > 100 µM | > 100 µM | > 100 µM |  |  |  | > 100 µM |  |  |  |  | 
COc1cc(C#CC(=O)OC/C=C/c2ccc3c(c2)OCO3)cc(OC)c1OC |  | 62.9 µM | 76.9 µM |  |  | 51 µM | 57 µM | 68.6 µM | 25.4 µM | > 100 µM | 32.8 µM |  |  |  | 58.5 µM |  |  |  |  | 
Clc1nc2ccccc2nc1CI | 2.86 µM | 18.2 µM |  | 1.75 µM | 12.2 µM | 77.6 µM | 13.2 µM | 30.4 µM | 19.4 µM | 30.8 µM | 7.82 µM | 5.65 µM | 14.3 µM | 6.38 µM | 25.3 µM | 5.43 µM | 17.1 µM | 2.6 µM |  | 12.7 µM
NC(=O)NC1C(c2ccccc2)=C1c1ccccc1 |  | 68.3 µM | 60 µM |  | 17.7 µM | > 100 µM | > 100 µM | 38.2 µM |  | > 100 µM | 23.6 µM |  |  |  | 61.4 µM |  |  |  |  | 
COc1ccc(C(C)=O)cc1N1C(=O)C2C(C1=O)C1(c3ccccc3)C(=O)C2(c2ccccc2)C(c2ccc(C)cc2)=C1c1ccc(C)cc1 (centres undefined) | > 100 µM | > 100 µM |  | > 100 µM | > 100 µM | > 100 µM | > 100 µM | > 100 µM | > 100 µM | > 100 µM | > 100 µM | 17.6 µM | > 100 µM | > 100 µM | > 100 µM | > 100 µM | > 100 µM | > 100 µM |  | > 100 µM
S=C1NC2(CCCCCC2)NN1c1ccccc1 |  | 3.64 µM | > 100 µM |  | > 100 µM | > 100 µM | > 100 µM | > 100 µM |  | > 100 µM | > 100 µM |  |  |  | > 100 µM |  |  |  |  | 
